Columns and labels:
[1] = tested on: HBV in mixed PBMCs, NTCP-Huh7 and Huh7.5.1 cells; assay: Dual/triple co-infection in cell co-cultures, HBV readout; format: cell-based, hepatitis B virus
[2] = molecular target: T1, Human recombinant CypD (Homo sapiens, UniProt P30405); assay: α-chymotrypsin-coupled PPIase assay, CypD isomerase activity; format: biochemical; details: IC50, neutralization of the isomerase activity of CypD, 5°C, 10 concentrations 0.05–1000 nM
T1 construct: purchased Atgen
Description: Inhibition of CypA and CypD isomerase activities were quantified using a α-chymotrypsin-coupled assay adapted to a 96-well plate format. Human recombinant CypA or CypD (Atgen) was dissolved to 10 nM in PPIases buffer (50 mM Hepes, 100 mM NaCl, 1 mg/ml bovine serum albumin, 1 mg/ml α-chymotrypsin; pH 8). Succinyl-AAPF-pNA peptide substrate (Sigma) was dissolved to 3.2 mM in LiCl/trifluoroethanol. Each CypI was prepared at 10 concentrations in DMSO, then diluted into CypA/D PPIase buffer to 0.05–1000 nM. Incubations were performed at 5°C. Ninety five μL of reaction mix was added to 5 μL peptide in 96-wells and OD405 nm measured at 6-sec intervals for 6 min using a Biotek Synergy H4 plate reader. Data were fitted with Graphpad Prism 6.0 to acquire first-order rate constants, which were calculated by subtracting the rate constant from uncatalyzed reactions (no CypA/D). The catalytic rate constants were plotted as a function of inhibitor concentration to obtain IC50s.
The inhibition of the isomerase activities of CypA and CypD were measured with 10 increasing concentrations of STG-175 to quantify IC50 values.
Fig 1 Anti-PPIase and immunosuppressive activities of STG-175. A. Structures of cyclophilin inhibitors. Inhibition of CypA (B) and CypD (C) isomerase activities were assessed using the α-chymotrypsin-coupled assay. Each test compound was prepared at 10 concentrations (0.05–1000 nM). All solutions were equilibrated, and reactions conducted at 5°C. Reactions were initiated by mixing 95 μL reaction mix with 5 μL of the peptide to be cleaved and measuring OD405 nm at 6-sec intervals for 6 min. […] Enzyme catalyzed rate constants were calculated by subtracting the rate constant from uncatalyzed reactions (no CypA/D), and catalytic rate constants plotted as a function of inhibitor concentration to obtain IC50s. […] D. IL-2 promoter activation upon T-cell stimulation was determined using an engineered Jurkat T-cell line, which expresses betagalactosidase. […] The Y-axis values are expressed as percentage of activity. Data expressed as EC50s are representative of two independent experiments.

[3] = tested on: NS5Ai-resistant L31V NS5A Con1 GT1b replicon; assay: Electroporated Con1 RNA replication in Huh7.5.1 cells (RT-qPCR), L31V NS5A; format: cell-based; details: Hepatitis C virus, Huh-7.5.1, 192 h, read-out: EC50 L31V NS5A
From the text: The GT1b subgenomic firefly luciferase reporter replicon pFK-I389/NS3–3 was provided by R. Bartenschlager. The GT1B subgenomic NS3, NS5A and NS5B mutants were created via homologous recombination using the In-Fusion HD Cloning kit (Clontech) as we described previously. […] The in vitro transcription of wild-type and mutant Con1 RNA was accomplished using the T7 MEGAscript kit (Ambion) by following the manufacturer’s instructions. In vitro-transcribed RNAs were introduced into Huh7.5.1 cells by electroporation. Trypsinized cells were washed twice and resuspended in phosphate-buffered saline (PBS) (calcium-free and magnesium-free) at 1x 10^7 cells per ml. Ten micrograms of RNA for each mutant was mixed with 0.4 mL of cells in a 4-mm cuvette, and a Bio-Rad Gene Pulser system was used to deliver a single pulse at 0.27 kV, 100 ohms, and 960 μF. […] RNA transfection efficiency and HCV subgenomic replication were assessed by reverse transcription-quantitative PCR (RT-qPCR) and presented as genome equivalents (GE) per microgram of total RNA as described previously. We measured by RT-qPCR the replication of wild-type, STG-175-, NS5Ai-, NS3i- and NS5Bi-resistant mutants in the presence of increasing concentrations of SGT-175, daclatasvir, telaprevir, boceprevir and sofosbuvir over a period of 8 days.
Fig 5 Cross-resistance analyses. […] Data are expressed as log of GE/μg of total RNA. […]

T1 sequence (P30405 30-207): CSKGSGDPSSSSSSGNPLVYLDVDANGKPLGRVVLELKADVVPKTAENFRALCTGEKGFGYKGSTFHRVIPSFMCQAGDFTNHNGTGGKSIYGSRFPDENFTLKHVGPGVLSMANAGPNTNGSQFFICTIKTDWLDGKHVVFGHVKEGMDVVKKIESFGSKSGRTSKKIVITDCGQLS

Q: Which results are given for `CC=CCC(C)C(O)C1C(=O)NC(CC)C(=O)N(C)C(CSCCCCO)C(=O)N(C)C(CC(C)(C)O)C(=O)NC(C(C)C)C(=O)N(C)C(CC(C)C)C(=O)NC(C)C(=O)NC(C)C(=O)N(C)C(CC(C)C)C(=O)N(C)C(CC(C)C)C(=O)N(C)C(C(C)C)C(=O)N1C` (stereo not shown) [STG-175]?
A: HBV infection in co-infection ([1]; STG-175 added together with virus): greatly attenuated; pre-established HBV infection in co-infection ([1]; added 3 days post-infection and then every 3 days): decreased the viral expansion; IC50 [2]: 1.3 nM; EC50 [3]: 15.1 nM

From article PMC4841536, “Characterization of the Anti-HCV Activities of the New Cyclophilin Inhibitor STG-175” (PLoS ONE, 2016)
